{"source": "patent US7741354B2", "about": "“Inhibitors of glutaminyl cyclase” (Probiodrug AG, priority 2006, dated 2010)", "note": "pIC50: −log10 of the molar value."}
{"molecular_target": "hQC (Homo sapiens, UniProt Q16769)", "sequence (Q16769 29-361)": "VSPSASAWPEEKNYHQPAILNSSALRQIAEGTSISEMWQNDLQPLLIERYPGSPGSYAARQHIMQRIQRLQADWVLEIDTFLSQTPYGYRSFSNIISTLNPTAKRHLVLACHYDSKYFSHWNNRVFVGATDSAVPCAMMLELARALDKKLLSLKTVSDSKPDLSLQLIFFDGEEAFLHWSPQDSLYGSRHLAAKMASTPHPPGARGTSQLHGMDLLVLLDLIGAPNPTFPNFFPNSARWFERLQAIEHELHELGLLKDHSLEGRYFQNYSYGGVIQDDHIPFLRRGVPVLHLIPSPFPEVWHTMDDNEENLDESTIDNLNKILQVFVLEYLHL", "assay": "Fluorometric (fluorescent) assay of hQC inhibition, IC50", "assay_type": "biochemical", "conditions": "hQC inhibition; read-out: IC50", "protocol": "(§1) All compounds were immediately tested regarding their activity as hQC inhibitors.\n(§2) The purity of the compounds was determined by HPLC-MS. The IC50 value against hQC was measured using the fluorescent assay.\n(§3) All measurements were performed with a BioAssay Reader HTS-7000Plus for microplates (Perkin Elmer) at 30° C. QC activity was evaluated fluorometrically using H-Gln-βNA. The samples consisted of 0.2 mM fluorogenic substrate, 0.25 U pyroglutamyl aminopeptidase (Unizyme, Horsholm, Denmark) in 0.2 M Tris/HCl, pH 8.0 containing 20 mM EDTA and an appropriately diluted aliquot of QC in a final volume of 250 μl. Excitation/emission wavelengths were 320/410 nm. The assay reactions were initiated by addition of glutaminyl cyclase. QC activity was determined from a standard curve of β-naphthylamine under assay conditions. One unit is defined as the amount of QC catalyzing the formation of 1 μmol pGlu-βNA from H-Gln-βNA per minute under the described conditions.\n(§4) In a second fluorometric assay, QC was activity determined using H-Gln-AMC as substrate. Reactions were carried out at 30° C. utilizing the NOVOStar reader for microplates (BMG labtechnologies). The samples consisted of varying concentrations of the fluorogenic substrate, 0.1 U pyroglutamyl aminopeptidase (Qiagen) in 0.05 M Tris/HCl, pH 8.0 containing 5 mM EDTA and an appropriately diluted aliquot of QC in a final volume of 250 μl. Excitation/emission wavelengths were 380/460 nm. The assay reactions were initiated by addition of glutaminyl cyclase. QC activity was determined from a standard curve of 7-amino-4-methylcoumarin under assay conditions. The kinetic data were evaluated using GraFit sofware.\n(§5) For inhibitor testing, the sample composition was the same as described above, except of the putative inhibitory compound added. For a rapid test of QC-inhibition, samples contained 4 mM of the respective inhibitor and a substrate concentration at 1 KM. For detailed investigations of the inhibition and determination of Ki-values, influence of the inhibitor on the auxiliary enzymes was investigated first. […] The inhibitory constant was evaluated by fitting the set of progress curves to the general equation for competitive inhibition using GraFit software."}
{"smiles": "Brc1cc(Br)cc(C(Nc2ccc3[nH]cnc3c2)c2nnnn2C2CCCCC2)c1", "note": "(stereo not drawn) [compound 175, (1H-Benzoimidazol-5-yl)-[(1-cyclohexyl-1H-tetrazol-5-yl)-(3,5-dibromo-phenyl)-methyl]-amine]", "pIC50": 5.51}
{"smiles": "c1ccc(-c2ccc(C(Nc3ccc4[nH]cnc4c3)c3nnnn3CCc3cccs3)cc2)nc1", "note": "(stereo not drawn) [compound 211, (1H-Benzoimidazol-5-yl)-{(4-pyridin-2-yl-phenyl)-[1-(2-thiophen-2-yl-ethyl)-1H-tetrazol-5-yl]-methyl}-amine]", "pIC50": 5.66}
{"smiles": "c1ccc(C(c2ccccc2)n2nnnc2C(Nc2ccc3[nH]cnc3c2)c2cnc3ccccc3c2)cc1", "note": "(stereo not drawn) [compound 126, [(1-Benzhydryl-1H-tetrazol-5-yl)-quinolin-3-yl-methyl]-(1H-benzoimidazol-5-yl)-amine]", "pIC50": 5.31}
{"smiles": "O=c1c(C(Nc2ccc3[nH]cnc3c2)c2nnnn2CCc2cccs2)coc2ccccc12", "note": "(stereo not drawn) [compound 122, 3-{(1H-Benzoimidazol-5-ylamino)-[1-(2-thiophen-2-yl-ethyl)-1H-tetrazol-5-yl]-methyl}-chromen-4-one]", "pIC50": 5.31}
{"smiles": "Cc1cc(C(Nc2ccc3[nH]cnc3c2)c2nnnn2CC2COC(C)(C)O2)cc(C)c1O", "note": "(stereo not drawn) [compound 165, 4-{(1H-Benzoimidazol-5-ylamino)-[1-(2,2-dimethyl-[1,3]dioxolan-4-ylmethyl)-1H-tetrazol-5-yl]-methyl}-2,6-dimethyl-phenol]", "pIC50": 5.24}
{"smiles": "Brc1ccc(C(Nc2ccc3[nH]cnc3c2)c2nnnn2Cc2cccnc2)cc1", "note": "(stereo not drawn) [compound 201, (1H-Benzoimidazol-5-yl)-[(4-bromo-phenyl)-(1-pyridin-3-ylmethyl-1H-tetrazol-5-yl)-methyl]-amine]", "pIC50": 5.40}
{"smiles": "Clc1ccc(Cn2nnnc2C(Nc2ccc3[nH]cnc3c2)c2ccc3c(c2)OCO3)cc1", "note": "(stereo not drawn) [compound 160, {Benzo[1,3]dioxol-5-yl-[1-(4-chloro-benzyl)-1H-tetrazol-5-yl]-methyl}-(1H-benzoimidazol-5-yl)-amine]", "pIC50": 6.40}
{"smiles": "CC(Cc1ccc2c(c1)OCO2)C(Nc1ccc2[nH]cnc2c1)c1nnnn1C1CCCCC1", "note": "(stereo not drawn) [compound 116, [3-Benzo[1,3]dioxol-5-yl-1-(1-cyclohexyl-1H-tetrazol-5-yl)-2-methyl-propyl]-(1H-benzoimidazol-5-yl)-amine]", "pIC50": 5.12}
{"smiles": "O=[N+]([O-])c1cc(C(Nc2ccc3[nH]cnc3c2)c2nnnn2CC2CCCO2)ccc1Cl", "note": "(stereo not drawn) [compound 146]", "pIC50": 5.51}
{"smiles": "C/C=C/C=C/C(Nc1ccc2[nH]cnc2c1)c1nnnn1CC1CCCO1", "note": "(stereo not drawn) [compound 174, (1H-Benzoimidazol-5-yl)-{(2E,4E)-1-[1-(tetrahydro-furan-2-ylmethyl)-1H-tetrazol-5-yl]-hexa-2,4-dienyl}-amine]", "pIC50": 5.07}
{"smiles": "CCOC(=O)C1CCCCC1n1nnnc1C(Nc1ccc2[nH]cnc2c1)c1ccc(CC)cc1", "note": "(stereo not drawn) [compound 168]", "pIC50": 5.24}
{"smiles": "Cc1cc(C)cc(C(Nc2ccc3[nH]cnc3c2)c2nnnn2CC(=O)N2CCc3ccccc3C2)c1", "note": "(stereo not drawn) [compound 137, 2-{5-[(1H-Benzoimidazol-5-ylamino)-(3,5-dimethyl-phenyl)-methyl]-tetrazol-1-yl}-1-(3,4-dihydro-1H-isoquinolin-2-yl)-ethanone]", "pIC50": 5.31}
{"smiles": "Brc1cc(Br)cc(C(Nc2ccc3[nH]cnc3c2)c2nnnn2CCc2cccs2)c1", "note": "(stereo not drawn) [compound 177, (1H-Benzoimidazol-5-yl)-{(3,5-dibromo-phenyl)-[1-(2-thiophen-2-yl-ethyl)-1H-tetrazol-5-yl]-methyl}-amine]", "pIC50": 5.66}
{"molecular_target": "hQC (Homo sapiens, UniProt Q16769)", "assay": "Fluorometric (fluorescent) assay of hQC inhibition, IC50", "assay_type": "biochemical", "conditions": "purified compound from preparative synthesis; fluorescent assay; read-out: IC50 hQC", "protocol": "as §1, §2, §3, §4, §5"}
{"smiles": "CC(C)(C)Cn1nnnc1C(NCCCn1ccnc1)c1ccc2cccc(O)c2n1", "note": "(stereo not drawn) [Compound 64, 2-[[1-(2,2-Dimethyl-propyl)-1H-tetrazol-5-yl]-(3-imidazol-1-yl-propylamino)-methyl]-quinolin-8-ol]", "pIC50": 5.99}
{"molecular_target": "hQC (Homo sapiens, UniProt Q16769)", "assay": "Fluorometric (fluorescent) assay of hQC inhibition, IC50", "assay_type": "biochemical", "conditions": "read-out: IC50", "protocol": "as §1, §2, §3, §4, §5"}
{"smiles": "CCCCn1nnnc1C(NCCCn1ccnc1)c1ccc(Cl)c(Cl)c1", "note": "(stereo not drawn) [compound 18, [(1-Butyl-1H-tetrazol-5-yl)-(3,4-dichloro-phenyl)-methyl]-(3-imidazol-1-yl-propyl)-amine]", "pIC50": 5.12}
{"smiles": "c1ccc(CC(Nc2ccc3[nH]cnc3c2)c2nnnn2Cc2cccnc2)cc1", "note": "(stereo not drawn) [compound 73, (1H-Benzoimidazol-5-yl)-[2-phenyl-1-(1-pyridin-3-ylmethyl-1H-tetrazol-5-yl)-ethyl]-amine]", "pIC50": 5.24}
{"smiles": "Cc1ccc(C(C)CC(Nc2ccc3[nH]cnc3c2)c2nnnn2C2CCCCC2)o1", "note": "(stereo not drawn) [compound 96, (1H-Benzoimidazol-5-yl)-[1-(1-cyclohexyl-1H-tetrazol-5-yl)-3-(5-methyl-furan-2-yl)-butyl]-amine]", "pIC50": 5.31}
{"smiles": "CCOC(=O)C1CCCCC1n1nnnc1C(Nc1ccc2[nH]cnc2c1)c1ccc(Br)cc1", "note": "(stereo not drawn) [compound 103]", "pIC50": 5.31}
{"smiles": "Oc1cccc2ccc(C(NCCCn3ccnc3)c3nnnn3Cc3ccc(Cl)cc3)nc12", "note": "(stereo not drawn) [compound 4, 2-[[1-(4-Chloro-benzyl)-1H-tetrazol-5-yl]-(3-imidazol-1-yl-propylamino)-methyl]-quinolin-8-ol]", "pIC50": 5.31}
{"smiles": "c1ccc(-c2ccc(C(Nc3ccc4[nH]cnc4c3)c3nnnn3CC3CCCO3)cc2)nc1", "note": "(stereo not drawn) [compound 76, (1H-Benzoimidazol-5-yl)-{(4-pyridin-2-yl-phenyl)-[1-(tetrahydro-furan-2-ylmethyl)-1H-tetrazol-5-yl]-methyl}-amine]", "pIC50": 5.51}
{"smiles": "CC(C)(C)Cn1nnnc1C(NCCCn1ccnc1)c1ccc2cccc(O)c2n1", "note": "(stereo not drawn) [Compound 64, 2-[[1-(2,2-Dimethyl-propyl)-1H-tetrazol-5-yl]-(3-imidazol-1-yl-propylamino)-methyl]-quinolin-8-ol]", "pIC50": 6.40}
{"smiles": "COC(=O)Cn1nnnc1C1(NCCCn2ccnc2)CCC1", "note": "[compound 49, {5-[1-(3-Imidazol-1-yl-propylamino)-cyclobutyl]-tetrazol-1-yl}-acetic methyl ester]", "pIC50": 6.40}
{"smiles": "Cc1ccc(C(C)CC(Nc2ccc3[nH]cnc3c2)c2nnnn2CC2CCCO2)o1", "note": "(stereo not drawn) [compound 111, (1H-Benzoimidazol-5-yl)-{3-(5-methyl-furan-2-yl)-1-[1-(tetrahydro-furan-2-ylmethyl)-1H-tetrazol-5-yl]-butyl}-amine]", "pIC50": 5.24}
{"smiles": "COC(=O)Cn1nnnc1C(NCCCn1ccnc1)c1ccc2[nH]ccc2c1", "note": "(stereo not drawn) [compound 54, {5-[(3-Imidazol-1-yl-propylamino)-(1H-indol-5-yl)-methyl]-tetrazol-1-yl}-acetic methyl ester]", "pIC50": 5.24}
{"smiles": "CC(C)(C)Cn1nnnc1C(NCCCn1ccnc1)c1ccc2[nH]ccc2c1", "note": "(stereo not drawn) [compound 65, [[1-(2,2-Dimethyl-propyl)-1H-tetrazol-5-yl]-(1H-indol-5-yl)-methyl]-(3-imidazol-1-yl-propyl)-amine]", "pIC50": 5.31}
{"smiles": "CCOC(=O)C1CC1C(Nc1ccc2[nH]cnc2c1)c1nnnn1CCc1cccs1", "note": "(stereo not drawn) [compound 104]", "pIC50": 5.40}
{"smiles": "C=CCn1nnnc1C(NCCCn1ccnc1)c1ccc2[nH]ccc2c1", "note": "(stereo not drawn) [compound 46, [(1-Allyl-1H-tetrazol-5-yl)-(1H-indol-5-yl)-methyl]-(3-imidazol-1-yl-propyl)-amine]", "pIC50": 5.12}
{"smiles": "Clc1ccc(Cn2nnnc2[C@H](NCCCn2ccnc2)C2CCC=CO2)cc1", "note": "(stereo partly drawn) [compound 9, {(S)-[1-(4-Chloro-benzyl)-1H-tetrazol-5-yl]-3,4-dihydro-2H-pyran-2-yl-methyl}-(3-imidazol-1-yl-propyl)-amine]", "pIC50": 5.31}
{"smiles": "COCCCn1nnnc1C(NCCCn1ccnc1)c1ccc(Cl)c(Cl)c1", "note": "(stereo not drawn) [compound 32, {(3,4-Dichloro-phenyl)-[1-(3-methoxy-propyl)-1H-tetrazol-5-yl]-methyl}-(3-imidazol-1-yl-propyl)-amine]", "pIC50": 5.12}
{"smiles": "C1=CO[C@H](C(NCCCn2ccnc2)c2nnnn2C2CC2)CC1", "note": "(stereo partly drawn) [compound 71, [(S)-(1-Cyclopropyl-1H-tetrazol-5-yl)-3,4-dihydro-2H-pyran-2-yl-methyl]-(3-imidazol-1-yl-propyl)-amine]", "pIC50": 5.03}
